Test results reported in patent US11149031B2, “Substituted N-(3-fluoropropyl)-pyrrolidine compounds, processes for their preparation and therapeutic uses thereof” (SANOFI, priority 2016, dated 2021).

Experiments:
[1] = target: His6-ERα298-554 Y537S mutant (ERα ligand-binding domain) (Homo sapiens (Human), UniProt P03372, Y537S); experiment: Test A: biochemical antagonist activity, LanthaScreen TR-FRET ERα coactivator assay, Y537S mutant; conditions: protocol with 3 nM estradiol; read-out: Antagonism Y537S IC50
Chain of His6-ERα298-554 Y537S mutant (ERα ligand-binding domain) (P03372 298-554 Y537S): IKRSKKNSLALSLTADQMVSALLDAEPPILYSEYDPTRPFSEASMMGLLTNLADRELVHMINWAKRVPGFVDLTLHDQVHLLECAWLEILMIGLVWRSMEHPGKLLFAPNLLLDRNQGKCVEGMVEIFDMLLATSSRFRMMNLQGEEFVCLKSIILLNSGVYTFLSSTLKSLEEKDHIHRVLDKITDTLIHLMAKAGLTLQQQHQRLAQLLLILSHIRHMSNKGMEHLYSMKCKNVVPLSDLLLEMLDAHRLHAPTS
Procedure: (§1) Test A: Biochemical Antagonist Activity on Wild Type (WT) and Mutants
(§2) Estrogen Receptors Test A involves measuring the in vitro antagonist activity of the compounds of the invention on estrogen receptors.
(§3) The measurements of the antagonist activities were made using an estrogen receptor coactivator assay as described hereunder.
(§4) Antagonistic potency of compounds was evaluated using LanthaScreen® TR-FRET ERα Coactivator Assay (ThermoFisher) with modifications. […] The assay works in a homogeneous mix-and-read format. In a typical experiment, a 4 μL mixture of 0.5 nM His6-ERα298-554, 0.5 nM Tb-labeled His6 antibody, 250 nM PGC1a peptide, and 3 nM estradiol (or 10 nM estradiol) in 100 mM potassium phosphate, pH 7.4, 0.01% Tween-20, 0.02% NaN3, 5 mM DTT, was added to 40 nL test compound in DMSO and incubated overnight at room temperature. The TR-FRET 520:495 nm emission ratio was calculated and used to determine the IC50 value from a dose response curve fit to the 4-parameter logistic equation.

ERα in MCF7 cells = ERα in MCF7 cells (Homo sapiens (Human), UniProt P03372); experiment: Test C: estrogen receptor degradation activity, ERα in cell western assay in MCF7 cells; format: cell-based; conditions: for DC50: 4 hours post compound addition, ERα in cell western, read-out: Degradation IC50; for % Degradation at 3 μM: 4 hours, relative to fulvestrant
Chain of ERα in MCF7 cells (P03372 whole entry): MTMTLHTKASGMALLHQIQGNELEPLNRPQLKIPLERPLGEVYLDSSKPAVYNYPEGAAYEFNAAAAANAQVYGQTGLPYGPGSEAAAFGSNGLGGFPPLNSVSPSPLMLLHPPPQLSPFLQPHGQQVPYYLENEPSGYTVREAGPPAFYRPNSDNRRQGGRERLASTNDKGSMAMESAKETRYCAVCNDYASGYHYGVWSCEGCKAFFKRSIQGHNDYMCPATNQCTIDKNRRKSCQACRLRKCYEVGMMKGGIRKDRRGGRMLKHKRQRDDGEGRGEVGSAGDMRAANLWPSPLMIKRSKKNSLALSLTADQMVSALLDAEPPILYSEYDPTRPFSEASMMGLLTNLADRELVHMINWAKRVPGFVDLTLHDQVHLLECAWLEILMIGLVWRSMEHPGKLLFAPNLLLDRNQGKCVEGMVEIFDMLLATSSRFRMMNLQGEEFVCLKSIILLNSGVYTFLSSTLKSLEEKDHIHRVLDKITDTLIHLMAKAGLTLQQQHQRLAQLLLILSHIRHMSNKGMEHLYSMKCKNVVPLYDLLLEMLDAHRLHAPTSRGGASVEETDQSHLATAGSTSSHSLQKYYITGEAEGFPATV
Procedure: Test C: Estrogen Receptor Degradation Activity
Test C involves measuring the in vitro degradation activity of the compounds of the invention.
The measurements of the degradation activities were made using abreast cancer cell ERα in cell western assay as described hereunder.
MCF7 cells (ATCC) were seeded in 384 wells microplate (collagen coated) at concentration of >9990 cells/30 μL per well in red phenol free MEM alpha medium (invitrogen) containing 5% charcoal dextran striped FBS. The following day, 9 points serial 1:5 dilution of each compound were added to the cells in 2.5 μL at final concentrations ranging from 3-0.000018 μM or 0.1 μM for fulvestrant (using as positive control). At 4 hours post compounds addition the cells were fixed by adding 25 μL of formalin (final concentration 5% formalin containing 0.1% triton) for 10 minutes at room temperature and then washed twice with PBS. Then, 50 μL of LI-COR blocking buffer containing 0.1% Triton was added to plate for 30 minutes at room temperature. LI-COR blocking buffer was removed and cells were incubated overnight at cold room with 50 μL anti-ER rabbit monoclonal antibody (Thermo scientific MA1-39540) diluted at 1:>999 in LI-COR blocking buffer containing 0.1% tween-20. Wells which were treated with blocking but no antibody were used as background control. Wells were washed twice with PBS (0.1% tween-20) and incubated at 37° C. for 60 minutes in LI-COR (0.1% tween-20) containing goat anti-rabbit antibody Alexa 488 (1:>999) and Syto-64 a DNA dye (2 μM final concentration). Cells were then washed 3 times in PBS and scanned in ACUMEN explorer (TTP-Labtech). Integrated intensities in the green fluorescence and red fluorescence were measured to determine the levels of ERα and DNA respectively.

[2] = target: His6-ERα298-554 D538G mutant (ERα ligand-binding domain) (Homo sapiens (Human), UniProt P03372, D538G); experiment: Test A: biochemical antagonist activity, LanthaScreen TR-FRET ERα coactivator assay, D538G mutant; conditions: protocol with 3 nM estradiol; read-out: Antagonism D538G IC50
Chain of His6-ERα298-554 D538G mutant (ERα ligand-binding domain) (P03372 298-554 D538G): as the sequence (P03372 298-554 Y537S) above, with S240Y, D241G counted along it
Procedure: as §1, §2, §3, §4

[3] = target: His6-ERα298-554 WT (ERα ligand-binding domain) (Homo sapiens (Human), UniProt P03372); experiment: Test A: biochemical antagonist activity, LanthaScreen TR-FRET ERα coactivator assay, WT; conditions: protocol with 3 nM estradiol; read-out: Antagonism WT IC50
Chain of His6-ERα298-554 WT (ERα ligand-binding domain) (P03372 298-554): as the sequence (P03372 298-554 Y537S) above, with S240Y counted along it
Procedure: as §1, §2, §3, §4

Structure (SMILES)	IC50 [1] [nM]	DC50 (ERα in MCF7 cells) [nM]	% Degradation at 3 μM (ERα in MCF7 cells) [%]	IC50 [2] [nM]	IC50 [3] [nM]
Cc1c(O)ccc2c1OCCC(c1ccc3c(c1)CCN3)=C2c1ccc(O[C@H]2CCN(CCCF)C2)cc1 [Example 118, 5-[4-[(3S)-1-(3-fluoropropyl)pyrrolidin-3-yl]oxyphenyl]-4-indolin-5-yl-9-methyl-2,3-dihydro-1-benzoxepin-8-ol]	237	126	74	442	152
Cc1cccc(C2=C(c3ccc(O[C@H]4CCN(CCCF)C4)cc3)c3ccc(O)cc3OCC2)c1C [Example 122, 4-(2,3-dimethylphenyl)-5-[4-[(3S)-1-(3-fluoropropyl)pyrrolidin-3-yl]oxyphenyl]-2,3-dihydro-1-benzoxepin-8-ol]	24	0.3	91	41	3
Oc1ccc2c(c1Cl)OCCC(c1ccc3cc[nH]c3c1)=C2c1ccc(O[C@H]2CCN(CCCF)C2)cc1 [Example 123, 9-chloro-5-[4-[(3S)-1-(3-fluoropropyl)pyrrolidin-3-yl]oxyphenyl]-4-(1H-indol-6-yl)-2,3-dihydro-1-benzoxepin-8-ol]	1430	15	81	2290	156
Oc1ccc2c(c1Cl)OCCC(c1ccc3c(c1)NCC3)=C2c1ccc(O[C@H]2CCN(CCCF)C2)cc1 [Example 125, 9-chloro-5-[4-[(3S)-1-(3-fluoropropyl)pyrrolidin-3-yl]oxyphenyl]-4-indolin-6-yl-2,3-dihydro-1-benzoxepin-8-ol]	945	4	84	1340	190
Cc1c(F)cccc1C1=C(c2ccc(O[C@H]3CCN(CCCF)C3)cc2)c2ccc(O)cc2OCC1 [Example 126, 4-(3-fluoro-2-methyl-phenyl)-5-[4-[(3S)-1-(3-fluoropropyl)pyrrolidin-3-yl]oxyphenyl]-2,3-dihydro-1-benzoxepin-8-ol]	55	0.3	91	94	5
CCOc1ccc(C2=C(c3ccc(O[C@H]4CCN(CCCF)C4)cc3)c3ccc(O)cc3OCC2)cn1 [Example 127, 4-(6-ethoxy-3-pyridyl)-5-[4-[(3S)-1-(3-fluoropropyl)pyrrolidin-3-yl]oxyphenyl]-2,3-dihydro-1-benzoxepin-8-ol]	24	0.8	90	49	3
Oc1ccc2c(c1Cl)OCCC(c1cccc3c1CCN3)=C2c1ccc(O[C@H]2CCN(CCCF)C2)cc1 [Example 128, 9-chloro-5-[4-[(3S)-1-(3-fluoropropyl)pyrrolidin-3-yl]oxyphenyl]-4-indolin-4-yl-2,3-dihydro-1-benzoxepin-8-ol]	933	14	72	1210	96
Cc1c(O)ccc2c1OCCC(c1cccc3[nH]ccc13)=C2c1ccc(O[C@H]2CCN(CCCF)C2)cc1 [Example 130, 5-[4-[(3S)-1-(3-fluoropropyl)pyrrolidin-3-yl]oxyphenyl]-4-(1H-indol-4-yl)-9-methyl-2,3-dihydro-1-benzoxepin-8-ol]	777	18	73	1190	70
Oc1ccc2c(c1F)OCCC(c1ccc3cc[nH]c3c1)=C2c1ccc(O[C@H]2CCN(CCCF)C2)cc1 [Example 131, 9-fluoro-5-[4-[(3S)-1-(3-fluoropropyl)pyrrolidin-3-yl]oxyphenyl]-4-(1H-indol-6-yl)-2,3-dihydro-1-benzoxepin-8-ol]	276	3	83	340	19
Oc1ccc2c(c1F)OCCC(c1ccc3c(c1)NCC3)=C2c1ccc(O[C@H]2CCN(CCCF)C2)cc1 [Example 132, 9-fluoro-5-[4-[(3S)-1-(3-fluoropropyl)pyrrolidin-3-yl]oxyphenyl]-4-indolin-6-yl-2,3-dihydro-1-benzoxepin-8-ol]	334	2	88	473	28
Oc1ccc2c(c1F)OCCC(c1cccc3[nH]ccc13)=C2c1ccc(O[C@H]2CCN(CCCF)C2)cc1 [Example 133, 9-fluoro-5-[4-[(3S)-1-(3-fluoropropyl)pyrrolidin-3-yl]oxyphenyl]-4-(1H-indol-4-yl)-2,3-dihydro-1-benzoxepin-8-ol]	39	2	83	64	4
Oc1ccc2c(c1F)OCCC(c1cccc3c1CCN3)=C2c1ccc(O[C@H]2CCN(CCCF)C2)cc1 [Example 134, 9-fluoro-5-[4-[(3S)-1-(3-fluoropropyl)pyrrolidin-3-yl]oxyphenyl]-4-indolin-4-yl-2,3-dihydro-1-benzoxepin-8-ol]	225	3	85	328	19
Cc1cc2c(cc1O)OCCC(c1cccc(Cl)c1C)=C2c1ccc(O[C@H]2CCN(CCCF)C2)cc1 [Example 135, 4-(3-chloro-2-methyl-phenyl)-5-[4-[(3S)-1-(3-fluoropropyl)pyrrolidin-3-yl]oxyphenyl]-7-methyl-2,3-dihydro-1-benzoxepin-8-ol]	352	3	87	591	21
Cc1cc2c(cc1O)OCCC(c1cccc(O)c1)=C2c1ccc(O[C@H]2CCN(CCCF)C2)cc1 [Example 136, 5-[4-[(3S)-1-(3-fluoropropyl)pyrrolidin-3-yl]oxyphenyl]-4-(3-hydroxyphenyl)-7-methyl-2,3-dihydro-1-benzoxepin-8-ol]	44	1	79	59	4
Cc1cc2c(cc1O)OCCC(c1ccc3c(c1)CCN3)=C2c1ccc(O[C@H]2CCN(CCCF)C2)cc1 [Example 137, 5-[4-[(3S)-1-(3-fluoropropyl)pyrrolidin-3-yl]oxyphenyl]-4-indolin-5-yl-7-methyl-2,3-dihydro-1-benzoxepin-8-ol]	1220	5	75	1710	250
Cc1cc2c(cc1O)OCCC(c1ccc3[nH]ccc3c1)=C2c1ccc(O[C@H]2CCN(CCCF)C2)cc1 [Example 139, 5-[4-[(3S)-1-(3-fluoropropyl)pyrrolidin-3-yl]oxyphenyl]-4-(1H-indol-5-yl)-7-methyl-2,3-dihydro-1-benzoxepin-8-ol]	819	9	73	1170	68
Cc1ccc(C2=C(c3ccc(O[C@H]4CCN(CCCF)C4)cc3)c3cc(C)c(O)cc3OCC2)c(F)c1 [Example 140, 4-(2-fluoro-4-methyl-phenyl)-5-[4-[(3S)-1-(3-fluoropropyl)pyrrolidin-3-yl]oxyphenyl]-7-methyl-2,3-dihydro-1-benzoxepin-8-ol]	542	3	85	644	36
